# Measured values as given in patent US7727988B2, “Azabicyclo[3.1.0]hex-3-yl}alkyl)pyrimidinedione” (Glaxo Group Limited, priority 2006, dated 2010).
# Structures can show the parent of a compound that is named as a salt.
# Biological target: T1, dopamine D2 receptor (Homo sapiens, UniProt P14416)
# T1 construct: expressed in transfected cells; host or cells: Chinese Hamster Ovary (CHO) cells, membranes
# Assay: GTPS scintillation proximity assay (GTPS-SPA), CHO_D2 membranes
# Assay type: biochemical
# Conditions: up to the highest concentration tested in the assay (3 μM)
# Method: Functional potency of compounds of this invention can be measured by the following GTPS scintillation proximity assay (GTPS-SPA). Cells used in the study are Chinese Hamster Ovary (CHO) Cells. • Cell Line • CHO_D2 • CHO_D3 • Dopamine CHO D3 (Biocat no 1060) transduced with bacmam G0 G-protein (Biocat no 97886)
# All steps are performed at 4° C. Cell membranes are prepared as follows. Cell pellets are resuspended in 10 volumes of 50 mM HEPES, 1 mM EDTA pH 7.4, using KOH. Cells are homogenised within a glass waring blender for 2 bursts of 15 secs in 200 mls of buffer (50 mM HEPES, 1 mM leupeptin, 25 μg/ml bacitracin, 1 mM EDTA, 1 mM PMSF, 2 μM Pepstatin A). (the latter 2 reagents added as fresh ×100 and ×500 stocks respectively in ethanol). The blender is plunged into ice for 5 mins after the first burst and 10-40 mins after the final burst to allow foam to dissipate. The material is then spun at 500 g for 20 mins and the supernatant spun for 36 mins at 48.000 g. The pellet is resuspended in the same buffer as above but without PMSF and Pepstatin A. The material is then forced through a 0.6 mm needle, made up to the required volume, (usually ×4 the volume of the original cell pellet), aliquoted and stored frozen at −80° C.
# The final top concentration of test drug is 3 μM in the assay and 11 points serial dilution curves 1:4 in 100% DMSO are carried out using a Biomek FX. The test drug at 1% (0.5 ul) total assay volume (TAV) is added to a solid, white Greiner polypropylene 384-well assay plate. 50% TAV (25 μl) of precoupled (for 60 mins at RT) membranes, 5 μg/well, and Wheatgerm Agglutinin Polystyrene Scintillation Proximity Assay beads (RPNQ0260, Amersham), 0.25 mg/well, in 20 mM HEPES (pH 7.4, 100 mM NaCl, 10 mM MgCl2), 60 μg/mL saponin and 30 uM GDP is added. The third addition is a 20% TAV (10 ul) addition of either buffer, (agonist format) or EC80 final assay concentration of agonist, Quinelorane, prepared in assay buffer (antagonist format). The assay is started by the addition of 29% TAV (15 ul) of GTP[35S] 0.38 nM final (37 MBq/mL, 1160 Ci/mmol, Amersham). After all additions assay plates are spun down for 1 min at 1,000 rpm. The final assay cocktail ([…]) is incubated at room temperature to equilibrate for 3-6 hours before reading on a ViewLux™ (613/55 filter) luminescence imager 5 min/plate.
# The effect of the test drug over the basal generates fpKi values of test drug are calculated from the IC50 generated by “antagonist format” experiment, using Cheng & Prusoff equation: fKi=IC50/1+([A]/EC50) where: [A] is the concentration of the agonist Quinelorane in the assay and EC50 is the Quinelorane EC50 value obtained in the same experiment. fpKi is defined as −logfKi. • pKi results are only estimated to be accurate to about 0.3-0.5.
# T1 sequence (P14416 whole entry): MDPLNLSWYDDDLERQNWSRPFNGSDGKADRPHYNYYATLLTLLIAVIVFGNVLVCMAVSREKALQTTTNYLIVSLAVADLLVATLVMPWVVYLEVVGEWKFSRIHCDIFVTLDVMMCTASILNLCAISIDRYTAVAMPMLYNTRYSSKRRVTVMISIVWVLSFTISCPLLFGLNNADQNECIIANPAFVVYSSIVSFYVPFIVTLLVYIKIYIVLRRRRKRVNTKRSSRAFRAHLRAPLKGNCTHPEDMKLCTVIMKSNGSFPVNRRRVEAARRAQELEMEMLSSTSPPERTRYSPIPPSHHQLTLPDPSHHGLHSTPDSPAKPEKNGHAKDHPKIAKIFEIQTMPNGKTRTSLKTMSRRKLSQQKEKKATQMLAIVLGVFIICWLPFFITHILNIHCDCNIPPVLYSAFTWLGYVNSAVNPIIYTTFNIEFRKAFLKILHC
row,activity in the D2 GTPS-SPA assay,Compound
1,no activity,"Cc1ncccc1-c1cn(CCCN2C[C@@H]3C[C@]3(c3ccc(C(F)(F)F)cc3)C2)c(=O)[nH]c1=O.Cl.Cl [Example E19, 5-(2-methyl-3-pyridinyl)-1-(3-{(1S,5R)-1-[4-(trifluoromethyl)phenyl]-3-azabicyclo[3.1.0]hex-3-yl}propyl)-2,4(1H,3H)-pyrimidinedione dihydrochloride]"
2,no activity,"Cl.Cl.O=c1[nH]c(=O)n(CCCN2C[C@@H]3C[C@]3(c3ccc(C(F)(F)F)cc3)C2)cc1-c1cccnc1F [Example E25, 5-(2-fluoro-3-pyridinyl)-1-(3-{(1S,5R)-1-[4-(trifluoromethyl)phenyl]-3-azabicyclo[3.1.0]hex-3-yl}propyl)-2,4(1H,3H)-pyrimidinedione dihydrochloride]"
3,no activity,"Cl.Cl.O=c1[nH]c(=O)n(CCCN2C[C@@H]3C[C@]3(c3ccc(C(F)(F)F)cc3)C2)cc1-c1ccncc1F [Example E44, 5-(3-fluoro-4-pyridinyl)-1-(3-{(1S,5R)-1-[4-(trifluoromethyl)phenyl]-3-azabicyclo[3.1.0]hex-3-yl}propyl)-2,4(1H,3H)-pyrimidinedione dihydrochloride]"
4,no activity,"Cl.N#Cc1cn(CCCN2C[C@@H]3C[C@]3(c3ccc(C(F)(F)F)cc3)C2)c(=O)[nH]c1=O [Example E17, 2,4-dioxo-1-(3-{(1S,5R)-1-[4-(trifluoromethyl)phenyl]-3-azabicyclo[3.1.0]hex-3-yl}propyl)-1,2,3,4-tetrahydro-5-pyrimidinecarbonitrile hydrochloride]"
5,no activity,"Cc1nc(-c2cn(CCCN3C[C@@H]4C[C@]4(c4ccc(C(F)(F)F)cc4)C3)c(=O)[nH]c2=O)ccc1F.Cl.Cl [Example E39, 5-(5-fluoro-6-methyl-2-pyridinyl)-1-(3-{(1S,5R)-1-[4-(trifluoromethyl)phenyl]-3-azabicyclo[3.1.0]hex-3-yl}propyl)-2,4(1H,3H)-pyrimidinedione dihydrochloride]"
6,no activity,"O=c1[nH]c(=O)n(CCCN2CC3C[C@]3(c3ccc(C(F)(F)F)cc3)C2)cc1-c1cccc(C(F)(F)F)n1 (some centres unmarked) [Example E38, dihydrochloride]"
7,no activity,"Cc1ccncc1-c1cn(CCCN2C[C@@H]3C[C@]3(c3ccc(C(F)(F)F)cc3)C2)c(=O)[nH]c1=O.Cl.Cl [Example E64, 5-(4-methyl-3-pyridinyl)-1-(3-{(1S,5R)-1-[4-(trifluoromethyl)phenyl]-3-azabicyclo[3.1.0]hex-3-yl}propyl)-2,4(1H,3H)-pyrimidinedione dihydrochloride]"
8,no activity,"O=c1[nH]c(=O)n(CCCN2C[C@@H]3C[C@]3(c3ccc(C(F)(F)F)cc3)C2)cc1-c1ccc(Cl)nc1 [Example E59, 5-(6-chloro-3-pyridinyl)-1-(3-{(1S,5R)-1-[4-(trifluoromethyl)phenyl]-3-azabicyclo[3.1.0]hex-3-yl}propyl)-2,4(1H,3H)-pyrimidinedione dihydrochloride]"
9,no activity,"Cl.Cl.N#Cc1cccc(-c2cn(CCCN3C[C@@H]4C[C@]4(c4ccc(C(F)(F)F)cc4)C3)c(=O)[nH]c2=O)n1 [Example E47, 6-[2,4-dioxo-1-(3-{(1S,5R)-1-[4-(trifluoromethyl)phenyl]-3-azabicyclo[3.1.0]hex-3-yl}propyl)-1,2,3,4-tetrahydro-5-pyrimidinyl]-2-pyridinecarbonitrile dihydrochloride]"
10,no activity,"Cc1nc(C)c(-c2cn(CCCN3C[C@@H]4C[C@]4(c4ccc(C(F)(F)F)cc4)C3)c(=O)[nH]c2=O)o1.Cl [Example E41, 5-(2,4-dimethyl-1,3-oxazol-5-yl)-1-(3-{(1S,5R)-1-[4-(trifluoromethyl)phenyl]-3-azabicyclo[3.1.0]hex-3-yl}propyl)-2,4(1H,3H)-pyrimidinedione hydrochloride]"
11,no activity,"Cl.Cl.O=c1[nH]c(=O)n(CCCN2C[C@@H]3C[C@]3(c3ccc(C(F)(F)F)cc3)C2)cc1-c1cc(F)cnc1Cl [Example E45, 5-(2-chloro-5-fluoro-3-pyridinyl)-1-(3-{(1S,5R)-1-[4-(trifluoromethyl)phenyl]-3-azabicyclo[3.1.0]hex-3-yl}propyl)-2,4(1H,3H)-pyrimidinedione dihydrochloride]"
12,no activity,"Cc1cccc(-c2cn(CCCCN3C[C@@H]4C[C@]4(c4ccc(C(F)(F)F)cc4)C3)c(=O)[nH]c2=O)n1.Cl.Cl [Example E32, 5-(6-methyl-2-pyridinyl)-1-(4-{(1S,5R)-1-[4-(trifluoromethyl)phenyl]-3-azabicyclo[3.1.0]hex-3-yl}butyl)-2,4(1H,3H)-pyrimidinedione dihydrochloride]"
13,no activity,"Cc1ccc(-c2cn(CCCN3C[C@@H]4C[C@]4(c4ccc(C(F)(F)F)cc4)C3)c(=O)[nH]c2=O)cn1.Cl.Cl [Example E40, 5-(6-methyl-3-pyridinyl)-1-(3-{(1S,5R)-1-[4-(trifluoromethyl)phenyl]-3-azabicyclo[3.1.0]hex-3-yl}propyl)-2,4(1H,3H)-pyrimidinedione dihydrochloride]"
14,no activity,"Cc1nc(F)ccc1-c1cn(CCCN2C[C@@H]3C[C@]3(c3ccc(C(F)(F)F)cc3)C2)c(=O)[nH]c1=O.Cl.Cl [Example E36, 5-(6-fluoro-2-methyl-3-pyridinyl)-1-(3-{(1S,5R)-1-[4-(trifluoromethyl)phenyl]-3-azabicyclo[3.1.0]hex-3-yl}propyl)-2,4(1H,3H)-pyrimidinedione dihydrochloride]"
15,no activity,"Cc1ncccc1-c1cn(CCCCN2C[C@@H]3C[C@]3(c3ccc(C(F)(F)F)cc3)C2)c(=O)[nH]c1=O.Cl.Cl [Example E29, 5-(2-methyl-3-pyridinyl)-1-(4-{(1S,5R)-1-[4-(trifluoromethyl)phenyl]-3-azabicyclo[3.1.0]hex-3-yl}butyl)-2,4(1H,3H)-pyrimidinedione dihydrochloride]"
16,no activity,"O=c1[nH]c(=O)n(CCCN2CC3CC3(c3ccc(Cl)cc3)C2)cc1-c1cccnc1F [Example E50, 1-{3-[(1S,5R/1R,5S)-1-(4-chlorophenyl)-3-azabicyclo[3.1.0]hex-3-yl]propyl}-5-(2-fluoro-3-pyridinyl)-2,4(1H,3H)-pyrimidinedione]"
17,no activity,"Cl.Cl.O=c1[nH]c(=O)n(CCCN2C[C@@H]3C[C@]3(c3ccc(C(F)(F)F)cc3)C2)cc1-c1ccncc1 [Example E24, 5-(4-pyridinyl)-1-(3-{(1S,5R)-1-[4-(trifluoromethyl)phenyl]-3-azabicyclo[3.1.0]hex-3-yl}propyl)-2,4(1H,3H)-pyrimidinedione dihydrocholoride]"
18,no activity,"Cl.O=c1[nH]c(=S)ccn1CCCCN1C[C@@H]2C[C@]2(c2ccc(C(F)(F)F)cc2)C1 [Example E33, 4-thioxo-1-(4-{(1S,5R)-1-[4-(trifluoromethyl)phenyl]-3-azabicyclo[3.1.0]hex-3-yl}butyl)-3,4-dihydro-2(1H)-pyrimidinone hydrochloride]"
19,no activity,"Cc1cnc(F)c(-c2cn(CCCN3C[C@@H]4C[C@]4(c4ccc(C(F)(F)F)cc4)C3)c(=O)[nH]c2=O)c1.Cl.Cl [Example E61, 5-(2-fluoro-5-methyl-3-pyridinyl)-1-(3-{(1S,5R)-1-[4-(trifluoromethyl)phenyl]-3-azabicyclo[3.1.0]hex-3-yl}propyl)-2,4(1H,3H)-pyrimidinedione dihydrochloride]"
20,no activity,"Cl.O=c1ccn(CCCCN2C[C@@H]3C[C@]3(c3ccc(C(F)(F)F)cc3)C2)c(=O)[nH]1 [Example E5, 1-(4-{(1S,5R)-1-[4-(trifluoromethyl)phenyl]-3-azabicyclo[3.1.0]hex-3-yl}butyl)-2,4(1H,3H)-pyrimidinedione hydrochloride]"
